This note sets out measurements from ChEMBL document CHEMBL1137050, “Design and synthesis of 4-phenyl piperidine compounds targeting the mu receptor” (Bioorg Med Chem Lett, 2004).

The target in assay [1] is T1, Nociceptin receptor (Homo sapiens, UniProt P41146). Description: Binding affinity for opioid receptor like 1 expressed in HEK293 cells. The format is cell-based.
Assay [2] concerns the target T1, Nociceptin receptor. Description: Agonistic activity determined by ability to stimulate GTP gamma S binding in comparison to nociceptin (N/OFQ). Further details: concentration or dose not given beside the values. (GTPγS is a poorly hydrolysed GTP analogue; its binding reports G protein activation.)
For the next assay, the target named is Mu-type opioid receptor (Homo sapiens, UniProt P35372). Description: Binding affinity for recombinant human mu-opioid receptor was determined by using [3H]- diprenophine radioligand.
Mu-type opioid receptor, sequence (P35372 whole entry): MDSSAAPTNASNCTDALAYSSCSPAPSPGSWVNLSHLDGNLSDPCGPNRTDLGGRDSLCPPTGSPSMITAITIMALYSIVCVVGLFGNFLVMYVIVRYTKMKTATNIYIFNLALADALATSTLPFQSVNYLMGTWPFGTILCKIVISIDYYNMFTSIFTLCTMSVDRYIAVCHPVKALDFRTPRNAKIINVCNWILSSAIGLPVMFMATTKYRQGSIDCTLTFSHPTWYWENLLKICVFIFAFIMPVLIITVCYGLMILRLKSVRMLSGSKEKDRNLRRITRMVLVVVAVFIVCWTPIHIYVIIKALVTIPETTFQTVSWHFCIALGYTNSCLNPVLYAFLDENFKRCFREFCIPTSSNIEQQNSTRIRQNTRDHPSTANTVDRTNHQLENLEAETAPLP
The target of assay [3] is Nociceptin receptor (Rattus norvegicus) (UniProt P35370). Briefly: Partial agonistic activity by its ability to stimulate NOP in comparison to DAMGO. The format is functional.
Nociceptin receptor (Rattus norvegicus), sequence (P35370 whole entry): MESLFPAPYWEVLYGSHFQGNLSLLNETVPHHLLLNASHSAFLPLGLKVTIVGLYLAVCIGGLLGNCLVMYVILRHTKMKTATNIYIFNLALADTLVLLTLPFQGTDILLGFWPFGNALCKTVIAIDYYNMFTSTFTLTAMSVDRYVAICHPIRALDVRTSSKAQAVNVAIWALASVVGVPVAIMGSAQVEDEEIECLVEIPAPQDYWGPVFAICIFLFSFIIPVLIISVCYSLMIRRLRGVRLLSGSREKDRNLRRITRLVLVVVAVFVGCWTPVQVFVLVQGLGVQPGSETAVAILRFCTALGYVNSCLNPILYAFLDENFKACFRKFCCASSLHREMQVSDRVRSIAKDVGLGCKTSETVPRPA
The target is the same in assay [4]. Briefly: Agonistic activity by its ability to stimulate NOP in comparison to DAMGO. The class given is functional.
Assay [5] addresses T1, Nociceptin receptor. Description: Partial agonistic activity determined by ability to stimulate GTP gamma S binding in comparison to nociceptin (N/OFQ).
The target in assay [6] is Nociceptin receptor (Rattus norvegicus) (UniProt P35370). Briefly: Partial Agonistic activity by its ability to stimulate NOP in comparison to DAMGO. The format is functional.
In assay [7] the target is Mu opioid receptor (Rattus norvegicus) (UniProt P33535). Description: Partial agonistic activity by its ability to stimulate GTP gamma S binding in comparison to DAMGO.
Mu opioid receptor (Rattus norvegicus), sequence (P33535 whole entry, looked up): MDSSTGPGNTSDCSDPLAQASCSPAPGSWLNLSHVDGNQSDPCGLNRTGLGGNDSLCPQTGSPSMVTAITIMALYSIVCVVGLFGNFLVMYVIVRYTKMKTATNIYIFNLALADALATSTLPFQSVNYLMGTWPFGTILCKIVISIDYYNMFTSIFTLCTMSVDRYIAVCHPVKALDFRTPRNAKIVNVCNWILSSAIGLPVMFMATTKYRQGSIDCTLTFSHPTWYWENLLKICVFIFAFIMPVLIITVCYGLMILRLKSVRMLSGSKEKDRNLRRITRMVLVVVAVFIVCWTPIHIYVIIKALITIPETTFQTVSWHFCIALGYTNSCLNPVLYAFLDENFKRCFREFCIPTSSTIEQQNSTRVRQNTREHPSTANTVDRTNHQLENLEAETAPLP

T1 sequence (P41146 whole entry): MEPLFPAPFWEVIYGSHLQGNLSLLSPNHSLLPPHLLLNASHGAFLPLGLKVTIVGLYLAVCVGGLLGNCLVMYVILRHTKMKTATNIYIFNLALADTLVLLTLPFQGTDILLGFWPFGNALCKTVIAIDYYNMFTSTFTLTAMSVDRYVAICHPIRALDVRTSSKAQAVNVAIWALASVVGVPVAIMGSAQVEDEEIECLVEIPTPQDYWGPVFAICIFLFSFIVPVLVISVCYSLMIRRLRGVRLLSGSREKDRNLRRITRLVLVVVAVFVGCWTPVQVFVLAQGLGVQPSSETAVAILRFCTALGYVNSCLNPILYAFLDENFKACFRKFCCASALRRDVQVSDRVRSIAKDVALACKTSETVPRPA

As a reminder, the Ki is the equilibrium dissociation constant of an inhibitor or competing ligand from its target. `O=C(O)C(CCN1CCC(O)(c2ccc(Cl)cc2)CC1)(c1ccccc1)c1ccccc1` displayed a Ki at Nociceptin receptor [1] greater than 10000 nM. This compound yielded an Activity at Nociceptin receptor [2] greater than 75%.

`O=C(O)C(CCN1CCC(O)(c2ccc(Cl)c(C(F)(F)F)c2)CC1)(c1ccccc1)c1ccccc1`: the Ki at Nociceptin receptor [1] is greater than 10000 nM; on Mu-type opioid receptor, 489 nM. The Activity at Nociceptin receptor [2] was greater than 75%.

With `N#Cc1ccc(CN2CCC(O)(c3ccc(Cl)c(C(F)(F)F)c3)CC2)cc1`, at Mu-type opioid receptor, the Ki was greater than 10000 nM.

`OC1(c2ccc(Cl)c(C(F)(F)F)c2)CCN(Cc2ccc3ccccc3c2)CC1` displayed an Activity in assay [3] greater than 10%. The inhibition constant (Ki) at Mu-type opioid receptor worked out at 2.5 nM.

For `O=C(O)C(CCN1CCC(O)(c2cccc(C(F)(F)F)c2)CC1)(c1ccccc1)c1ccccc1`, the Ki was greater than 10000 nM at Nociceptin receptor [1] and 331 nM on Mu-type opioid receptor. Also, the Activity on Nociceptin receptor [2] was greater than 75%.

As for `CN(C)C(=O)C(CCN1CCC(O)(c2cccc(C(F)(F)F)c2)CC1)(c1ccccc1)c1ccccc1`, the Ki is 505 nM at Nociceptin receptor [1] and 0.16 nM on Mu-type opioid receptor. The Activity (on Nociceptin receptor [2]; in assay [4]) was greater than 75% in each case.

Regarding `[O-][N+]1(CCC(c2ccccc2)c2ccccc2)CCC(O)(c2cccc(C(F)(F)F)c2)CC1` (stereo not drawn), the inhibition constant (Ki) was greater than 10000 nM on Nociceptin receptor [1] and 8130 nM at Mu-type opioid receptor.

On to `OC1(c2ccc(Cl)c(C(F)(F)F)c2)CCN(Cc2ccc(C(F)(F)F)cc2)CC1`, for which the Activity at Nociceptin receptor [5] was greater than 10%. Also, the inhibition constant (Ki) at Mu-type opioid receptor was 104 nM.

For the compound `[O-][N+]1(Cc2ccc3ccccc3c2)CCC(O)(c2ccc(Cl)c(C(F)(F)F)c2)CC1` (stereo not drawn), the inhibition constant Ki on Nociceptin receptor [1] and on Mu-type opioid receptor was greater than 10000 nM each time.

Regarding `[O-][N+]1(CCC(c2ccccc2)c2ccccc2)CCC(O)(c2ccc(Cl)c(C(F)(F)F)c2)CC1` (stereo not drawn), the Ki at Nociceptin receptor [1] and on Mu-type opioid receptor was greater than 10000 nM each time.

Take `OC1(c2ccc(Cl)cc2)CCN(CCC(c2ccccc2)c2ccccc2)CC1`: the inhibitory constant (Ki) came out at 372 nM on Nociceptin receptor [1] and 37 nM on Mu-type opioid receptor. Moreover, the Activity (on Nociceptin receptor [5]; in assay [6]) was greater than 10% each time.

Regarding `COC(=O)C(CCN1CCC(O)(c2ccc(Cl)cc2)CC1)(c1ccccc1)c1ccccc1`, the figures for the inhibition constant Ki on Nociceptin receptor [1] and at Mu-type opioid receptor were 590 nM and 0.23 nM, respectively. Further, the Activity (at Nociceptin receptor [2]; in assay [4]) was greater than 75% each time.

On to `CN(C)C(=O)C(CCN1CCC(O)(c2ccc(Cl)cc2)CC1)(c1ccccc1)c1ccccc1` [LOPERAMIDE], for which the inhibition constant (Ki) at Nociceptin receptor [1] was greater than 10000 nM. Further, the Activity at Nociceptin receptor [2] is greater than 75%.

In the case of `COC(=O)C(CCN1CCC(O)(c2ccc(Cl)c(C(F)(F)F)c2)CC1)(c1ccccc1)c1ccccc1`, the Ki on Nociceptin receptor [1] turned out to be 149 nM; at Mu-type opioid receptor, 0.3 nM. Further, the Activity (at Nociceptin receptor [2]; in assay [4]) was greater than 75% throughout.

As to `CN(C)C(=O)C(CCN1CCC(O)(c2ccc(Cl)c(C(F)(F)F)c2)CC1)(c1ccccc1)c1ccccc1` [FLUPERAMIDE], the values for the inhibition constant Ki on Nociceptin receptor [1] and at Mu-type opioid receptor were 2150 nM and 0.11 nM, respectively. In addition, on Nociceptin receptor [2], the Activity was greater than 75%.

For `OC1(c2cccc(C(F)(F)F)c2)CCN(CCC(c2ccccc2)c2ccccc2)CC1`, the Activity (at Nociceptin receptor [2]; in assay [4]) was greater than 75% throughout.

As to `OC1(c2ccc(Cl)c(C(F)(F)F)c2)CCN(CCC(c2ccccc2)c2ccccc2)CC1`, the Activity is greater than 75% on Nociceptin receptor [2] and greater than 10% in assay [7].

Take `COC(=O)C(CCN1CCC(O)(c2cccc(C(F)(F)F)c2)CC1)(c1ccccc1)c1ccccc1`: the Ki came to 78 nM on Nociceptin receptor [1] and 0.11 nM on Mu-type opioid receptor. For the same compound, the Activity (on Nociceptin receptor [2]; in assay [4]) was greater than 75% in each case.
